Data on nine compounds can be found in patent publication US12617770B2, “IRAK inhibitor and preparation method therefor and use thereof” (WUHAN CREATERNA SCIENCE AND TECHNOLOGY CO., LTD., priority 2019, dated 2026).

The target in one data set is T1, human IRAK4 (Homo sapiens, UniProt Q9NWZ3).
T1 construct: purchased Cama (so in the source)
T1 sequence (Q9NWZ3 1-460): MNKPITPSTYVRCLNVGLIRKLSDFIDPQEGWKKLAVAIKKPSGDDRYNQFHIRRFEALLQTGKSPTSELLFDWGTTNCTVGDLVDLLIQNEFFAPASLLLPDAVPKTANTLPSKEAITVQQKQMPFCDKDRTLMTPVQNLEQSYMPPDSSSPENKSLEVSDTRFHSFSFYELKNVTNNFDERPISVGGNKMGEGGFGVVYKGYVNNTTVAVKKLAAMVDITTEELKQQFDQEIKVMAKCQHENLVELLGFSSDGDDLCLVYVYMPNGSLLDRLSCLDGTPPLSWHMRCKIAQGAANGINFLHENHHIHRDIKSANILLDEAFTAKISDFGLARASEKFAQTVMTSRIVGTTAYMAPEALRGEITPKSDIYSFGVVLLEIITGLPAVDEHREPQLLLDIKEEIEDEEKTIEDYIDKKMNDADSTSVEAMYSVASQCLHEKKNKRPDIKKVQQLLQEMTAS
Kind of data set: IRAK4 MSA (Mobility-Shift Assay) at Km concentration of ATP. To be noted: GST-IRAK4 1 nM, ATP 37 μM (Km); read-out: IC50 for inhibiting human IRAK4 activity. The class given is biochemical. The procedure: A recombinant fusion protein of N-terminal GST (glutathione-S-transferase) and human IRAK4 was used as enzyme (GST-IRAK4, kinase IRAK4 (Cama, CAT No. 09-145)) at a final concentration of 1 nM; ATP (Sigma. CAT No. A7699-1G) was at a final concentration of 37 μM; • the substrates used for the kinase reaction were 5-FAM (5-carboxyfluorescein)-labeled polypeptide (5-FAM-[…]-COOH) and substrate peptide FAM-P8 (GL Biochem, CAT No. 112396) at final concentrations of 5 μM.
In this assay, 500 μM stock solutions of the compounds were prepared in 100% DMSO, and serially 4-fold diluted to the 10th concentration gradient with 100% DMSO, followed by a 10-fold dilution in the compound buffer (50 mM HEPES, pH 7.5, 0.00015% Brij-35) to give intermediate dilutions of the compounds at a final concentration of 10 μM−0.04 nM containing 10% DMSO. 5 μL of the intermediate dilution was transferred into a black 384-well plate.
IRAK4 was diluted to 2.5 nM in the kinase buffer (50 mM HEPES, pH 7.5, 0.00015% Brij-35, 2 mM DTT). 10 μL of the IRAK4 dilution was transferred to the 384-well plate and co-incubated with the compound for 10-15 min.
The substrate and ATP were diluted to 12.5 μM and 92.5 μM with reaction buffer (50 mM HEPES, pH 7.5, 0.00015% Brij-35, 10 mM MgCl2), respectively. 10 μL of the dilution was transferred to a 384-well plate and incubated at 28° C. for 1 h. The reaction was terminated by adding 25 μL of 50 mM EDTA to the 384-well plate.
The inhibition rate of IRAK4 by the compounds was calculated by measuring the rate of phosphorylated substrate using a Caliper EZ Reader (PerkinElmer) and the IC50 was calculated by XL-fit software. […] In particular, some exemplary compound activity values are as follows: […]

Data set [1] is described as follows: Plasma protein binding (PPB), equilibrium dialysis, human plasma. The class given is in vitro ADME. To be noted: 5 h at 37° C., read-out: Plasma protein binding (Bound %) Human (converted). The method, then: (§1) The experiment is intended to determine plasma protein binding (PPB) data of the test compounds disclosed herein.
(§2) In the PPB experiment, the final administration matrix contained the test compound or a reference compound with a concentration of 1 μM and DMSO with a content of 0.2%.
(§3) Collecting samples in initial time: 25 μL of the matrix containing the compound was added into a blank 96-well collecting plate, and the plate was stored at −20° C.
(§4) An equilibrated dialysis device was prepared. 100 μL of buffer was added to the receiving side of the equilibrium dialysis plate. Then 100 μL of the administration matrix containing the compound or the reference compound was added into an administration side of the equilibrium dialysis plate. The prepared equilibrium dialysis plate was placed in a 37° C. shaker to be shaken for 5 h at 60 rpm.
(§5) Sample was prepared at the end of cultivation (5 h): Preparing sample in the receiving side: 25 μL of sample from a receiving side was taken out and placed in a 96-well sample collecting plate, and 25 μL of a corresponding matrix (blank plasma) was added for mixing: 200 μL of ACN containing an internal standard was added, shaken for 10 minutes at 600 rpm, and centrifuged at 5594 g for 15 min.
(§6) Preparing sample in the administration side: 25 μL of the sample containing test compound and reference compound from the administration side was taken out and 25 μL of a blank buffer was added for mixing; 200 μL of ACN containing an internal standard was added, shaken for 10 minutes at 600 rpm, and centrifuged at 5594 g for 15 min.
(§7) Preparing sample in initial time: the sample containing test compound and reference compound was re-melted at 37° C. in initial time and then mixed with the corresponding matrix (blank buffer) in the same volume (25 μL); 200 μL of ACN containing an internal standard was added, shaken for 10 minutes at 600 rpm, and centrifuged at 5594 g for 15 min.
(§8) After all the samples were centrifuged, 50 μL of a supernatant was taken and added into 50 μL of ultrapure water for mixing, and the samples were sent to liquid chromatography-mass spectrometry.
Background: In equilibrium dialysis only unbound substance equilibrates across the membrane.

Data set [2] is described as follows: Plasma protein binding (PPB), equilibrium dialysis, mouse plasma. To be noted: 5 h at 37° C., read-out: Plasma protein binding (Bound %) Mouse (converted). The class given is in vitro ADME. The procedure:
as §1, §2, §3, §4, §5, §6, §7, §8

A short description of data set [3]: Plasma protein binding (PPB), equilibrium dialysis, rat plasma. The format is in vitro ADME. Particulars: 5 h at 37° C., read-out: Plasma protein binding (Bound %) Rat (converted). The method, then:
as §1, §2, §3, §4, §5, §6, §7, §8

The test system of another data set is TNF-α release. Kind of data set: Inhibition of cytokine TNF-α release in LPS-induced Balb/c female mice. The format is in vivo. To be noted: oral gavage 16 h before LPS (i.p. 0.2 mg/kg); serum 1.5 h after stimulation. The method, then:
Female Balb/c mice were randomized into groups, each containing 4 mice, including a control+vehicle group, a model+vehicle group, a model+reference group and model+compound groups. The control animals received an intraperitoneal injection of normal saline (10 mL/kg) and the model animals received LPS stimulation (Sigma CAT #L2630, i.p., 10 mL/kg, 0.2 mg/kg). To the test compounds, DMSO, Solutol and 10 mM PBS were sequentially added to prepare a solution or suspension of required concentration for administration. For the vehicle, DMSO, Solutol and 10 mM PBS were mixed in a volume ratio of 5:15:80. The animals were administered through oral gavage (10 mL/kg) 16 h before LPS (or saline) stimulation at predetermined doses, and euthanized with CO2 at 1.5 h after the stimulation for cardiac blood collection. The whole blood was not anticoagulated, incubated in wet ice for 1.5 h, and centrifuged at 2000×g at 4° C. for 10 min to separate the serum. Serum was frozen at −80° C. for TNF-α assay. Quantification of TNF-α was done by TNF-α ELISA kit according to the manufacturer's instructions. The readings of absorbance at A450 were measured with a microplate reader SpectraMax i3x (Molecular Device) for calculating the inhibition of the compounds, and IC50 was calculated with GraphPad Prism 7.0 software. […] In particular, some exemplary compound inhibition rate values are as follows: […]

The nature of data set [4]: Pharmacokinetic study, single oral gavage dosing. The class given is in vivo. Particulars: mouse, 40 mg/kg, 40 mpk, 15% solutol HS15 + 85% PBS, ICR mice, plasma.

The term pIC50 denotes −log10 of the IC50, conventionally taken in molar units. One may read the MRT as the average time that molecules of a dose stay in the body. As usually defined, the Tmax is the time from dosing to the highest level.

pIC50: −log10 of the molar value.

Turning to `COc1cc2nn([C@H]3CC[C@@](O)(CC#N)CC3)cc2cc1NC(=O)c1cccc(C)[n+]1[O-]` [Compound 175, 2-((2-((1r,4r)-4-(cyanomethyl)-4-hydroxycyclohexyl)-6-methoxy-2H-indazol-5-yl)carbamoyl)-6-methylpyridine 1-oxide], the negative logarithm of the IC50 (pIC50) on human IRAK4 is 8.15.

With `Cc1cccc(C(=O)Nc2cc3cn([C@H]4CC[C@](C)(O)CC4)nc3cc2N(C)C)[n+]1[O-]` [Compound 010, 2-((6-(dimethylamino)-2-((1r,4r)-4-hydroxy-4-methylcyclohexyl)-2H-indazol-5-yl)carbamoyl)-6-methylpyridine 1-oxide], at human IRAK4, the negative logarithm of the IC50 (pIC50) is 7.96.

Consider `COc1cc2nn(C3CCCC3)cc2cc1NC(=O)c1cccc(C)[n+]1[O-]` [Compound 284, 2-((2-cyclopentyl-6-methoxy-2H-indazol-5-yl)carbamoyl)-6-methylpyridine 1-oxide], for which, on human IRAK4, the negative-log IC50 (pIC50) is 7.55.

As to `COc1cc2nn(C3CCC(F)(F)CC3)cc2cc1NC(=O)c1cccc(C)[n+]1[O-]` [Compound 286, 2-((2-(4,4-difluorocyclohexyl)-6-methoxy-2H-indazol-5-yl)carbamoyl)-6-methylpyridine 1-oxide], the pIC50 at human IRAK4 is 7.85.

As for `COc1cc2nn([C@H]3CC[C@H](O)CC3)cc2cc1NC(=O)c1cccc(C)[n+]1[O-]` [Compound 013, 2-((2-((1r,4r)-4-hydroxycyclohexyl)-6-methoxy-2H-indazol-5-yl)carbamoyl)-6-methylpyridine 1-oxide], on human IRAK4, the pIC50 is 8.12. Besides, the values for the fraction unbound at 5 h, 1 μM in data set [1], in data set [2] and in data set [3] were 0.191, 0.238 and 0.183, respectively. Further, the “Inhibition rate (%) of TNF-α” value in the data set with TNF-α release came to 76.29%. The AUC(0-t) in data set [4] (read-out: Area under curve AUC0-t) stood at 160 µg·h/mL. Moreover, in data set [4] (read-out: Area under curve AUC0-∞), the AUC(0-inf) was 182 µg·h/mL. For the same compound, the MRT in data set [4] (read-out: Average retention time MRT) is 10.4 h. Also, the half-life in data set [4] (read-out: Half life t1/2 (converted)) was 7.23 h. Besides, the Cmax in data set [4] (read-out: Peak concentration Cmax) was 18900 ng/mL. Also, the Tmax in data set [4] (read-out: Time to peak tmax) was 1 h.

In the case of `CCOc1cc2nn([C@H]3CC[C@H](O)CC3)cc2cc1NC(=O)c1cccc(C)[n+]1[O-]` [Compound 016, 2-((6-ethoxy-2-((1r,4r)-4-hydroxycyclohexyl)-2H-indazol-5-yl)carbamoyl)-6-methylpyridine 1-oxide], the pIC50 at human IRAK4 is 8.09. Further, the fraction unbound at 5 h, 1 μM in data set [1] was 0.131; in data set [2], 0.123; in data set [3], 0.099. Moreover, in the data set on TNF-α release, the “Inhibition rate (%) of TNF-α” value is reported as 78.71%.

As to `COc1cc2nn([C@H]3CC[C@@H](O)CC3)cc2cc1NC(=O)c1cccc(C(C)C)[n+]1[O-]` [Compound 288, 2-((2-((1s,4s)-4-hydroxycyclohexyl)-6-methoxy-2H-indazol-5-yl)carbamoyl)-6-isopropylpyridine 1-oxide], the pIC50 on human IRAK4 was 7.89.

On to `C#C[C@]1(O)CC[C@H](n2cc3cc(NC(=O)c4cccc(C)[n+]4[O-])c(OC)cc3n2)CC1` [Compound 187, 2-((2-((1r,4r)-4-ethynyl-4-hydroxycyclohexyl)-6-methoxy-2H-indazol-5-yl)carbamoyl)-6-methylpyridine 1-oxide], for which the pIC50 on human IRAK4 was 8.04.

In the case of `COc1cc2nn([C@H]3CC[C@@H](O)CC3)cc2cc1NC(=O)c1cccc(C2CC2)[n+]1[O-]` [Compound 218, 2-cyclopropyl-6-((2-((1s,4s)-4-hydroxycyclohexyl)-6-methoxy-2H-indazol-5-yl)carbamoyl)pyridine 1-oxide], the negative-log IC50 (pIC50) on human IRAK4 is 8.08.
